Common to all, as to experiment: NCI-60 cell line screen, 48 h
Assay [1] deals with PC-3 prostate.
The test system of assay [2] is A498 renal.
For assay [3], the system named is SNB-19 CNS.
For assay [4], the system named is UACC-62 melanoma.
In assay [5] the test system is SF-539 CNS.
Assay [6] concerns 786-0 renal.
Assay [7] has as its system SF-295 CNS.
The test system of assay [8] is OVCAR-3 ovarian.
Assay [9] concerns UO-31 renal.
Assay [10] has as its system HCC-2998 colon.

SMILES strings stand for the structures. “And” between values parts separate entries of the source, which are not always exact repeats. Identical values can stand only once.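 Dose response: 5 concentrations. Exposure: 48 h. Format: 96-well plates. Endpoint: linear interpolation; highest concentration if not reached. At the GI50, growth is halved. TGI marks complete inhibition of growth.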

In the case of `CC(=O)/C(Br)=C/c1ccc(Br)o1`, the GI50 in [1] is 8.94 µM; in assay [2], 17.4 µM; in [3], 26 µM; in assay [4], 14 µM; in assay [5] it was 5 µM; in assay [6], 16.5 µM. Further, the GI50 is 18.7 µM in assay [7], 4.16 µM in assay [8], 10.2 µM in [9] and 19 µM in assay [10]. Besides, the TGI in assay [1] is 27.1 µM; in assay [2] it was 33.7 µM; in [3] it was over 59.6 µM; in assay [4], 28.3 µM; in [5], 10.8 µM; in assay [6] it was 34.2 µM. Further, the TGI came out at 38.7 µM in assay [7], 14.5 µM in [8], 29.1 µM in assay [9] and 36.7 µM in assay [10].
In the case of `Cn1cc(C2=C(c3cn(CCCN)c4ccccc34)C(=O)NC2=O)c2ccccc21`, the GI50 in [1] was 7.63 µM; in [2] it was 3.92 µM; in assay [3], 7.89 µM; in assay [4], 4.35 µM; in assay [5], 3.44 µM; in assay [6], 4.75 µM. Further, the GI50 in [7] was 7.38 µM; in assay [8], 5.86 µM; in [9] it was 5.41 µM; in [10], 5.84 µM. Also, the TGI was 24.6 µM in assay [1]; 9.18 µM in assay [2]; 24.9 µM in assay [3]; 8.05 µM in assay [4]; 6.86 µM in assay [5]; 14.2 µM in assay [6]. For the same molecule, the TGI in assay [7] was over 25 µM; in [8], 16.2 µM; in [9] it was over 18.8 µM; in assay [10], 16.2 µM.
For `Cc1ccc(Cl)c(NS(=O)(=O)c2ccc(-c3cnc(C4CC4)o3)cc2)c1`, the GI50 in assay [1] is 0.077 µM; in assay [2] it was 0.0286 µM; in assay [3] it was 0.129 µM; in [4] it was 0.0472 µM; in [5] it was 0.0803 µM; in [6] it was 0.0772 µM. The GI50 was 0.0377 µM in [7], 0.0674 µM in assay [8], 0.275 µM in assay [9] and 0.233 µM in assay [10]. Also, the TGI in assay [1] is over 68.6 µM; in assay [2], 0.303 µM; in assay [3], over 100 µM; in assay [4], 34.8 µM; in assay [5] it was 1.54 µM; in [6] it was over 100 µM. Besides, the TGI in assay [7] was 0.182 µM; in assay [8], 4.17 µM; in assay [9], over 100 µM; in assay [10], 14.6 µM.
For the molecule `O=C1NC2(CCCCC2)C(=O)N1CCN(CCCl)CCCl`, the TGI in [1] is over 25 µM; in [2] it was over 250 µM; in assay [3], over 250 µM; in [4] it was > 25 µM and 242 µM; in assay [5], over 250 µM; in assay [6], over 25 µM. The TGI in assay [7], in assay [8], in assay [9] and in assay [10] was over 250 µM each time. For the same molecule, the GI50 in [2] is over 25 µM; in assay [3] it was over 25 µM; in assay [4], over 25 µM; in assay [5] it was over 25 µM; in assay [7] it was > 25 µM and 138 µM; in assay [8], over 244 µM. Moreover, the GI50 in assay [9] and in assay [10] was over 25 µM throughout.
Turning to `OC1CCCC2CCC[N-]C12.OC1CCCC2CCC[N-]C12.[O]=[V][OH]` (stereo not drawn), the GI50 in assay [1] is 2.59 µM; in [2] it was 11.6 µM; in assay [3], 53.1 µM; in assay [4], 3.98 µM; in assay [5], 15.8 µM; in assay [6] it was 7.08 µM. For the same molecule, the GI50 in [7] is 9.84 µM; in assay [8], 0.359 µM; in assay [9] it was 2.13 µM; in [10] it was 12.7 µM. The TGI in assay [1] is 8.63 µM; in [2], 97.5 µM; in [3] it was over 100 µM; in assay [4], 24.7 µM; in assay [5] it was over 100 µM; in assay [6] it was 24.8 µM. Besides, the TGI in [7] was 76.9 µM; in [8] it was 2.27 µM; in [9], 9.29 µM; in assay [10], over 100 µM.
Turning to `Nc1ncc(-c2ccc3ncnc(N4CCc5ccc(Cl)cc54)c3c2)cc1C(F)(F)F`, the GI50 in assay [1] is 0.84 µM; in assay [2], 0.301 µM; in [3] it was 2.63 µM; in [4], 0.965 µM; in [5], 1.61 µM; in assay [6], 1.6 µM. Further, the GI50 was 1.4 µM in [7], 1.05 µM in [8], 0.254 µM in assay [9] and 3.43 µM in assay [10]. For the same molecule, the TGI in [1] was 16 µM; in assay [2] it was 2.52 µM; in [3] it was 23.7 µM; in [4], 11.1 µM; in [5], 10.4 µM; in assay [6], 12 µM. Besides, the TGI in assay [7] is 16.5 µM; in assay [8], 15.1 µM; in assay [9] it was 4.62 µM; in assay [10] it was over 100 µM.
Turning to `O=C1C=C(OCC=C(C(F)(F)F)C(F)(F)F)c2ccccc2C1=O`, the GI50 in [1] is 1.92 µM; in [2], 4.36 µM; in assay [3] it was 5.62 µM; in assay [4] it was 1.7 µM; in assay [5], 1.84 µM; in [6] it was 3.97 µM. Moreover, the GI50 in assay [7] was 14.6 µM; in [8], 1.78 µM; in assay [9], 1.53 µM; in [10], 1.84 µM. Moreover, the TGI is 5.91 µM in assay [1]; 16.6 µM in assay [2]; 19.5 µM in assay [3]; 4.1 µM in [4]; 3.63 µM in assay [5]; 13.9 µM in assay [6]. Besides, the TGI in [7] was 30.3 µM; in assay [8] it was 3.39 µM; in [9], 3.1 µM; in assay [10], 3.73 µM.

Values taken from PubChem BioAssay (NCI).
